# From ChEMBL document CHEMBL1201862, “PubChem BioAssay data set” (2004)
#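 Method: 48-hour compound exposure of cells in 96-well plates, five concentrations, linear interpolation of endpoints. The concentration for 50% growth inhibition is given as GI50.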 Active and inactive are the calls of the source. No stated cut-off is given here; in the data, active = GI50 up to about 1.1 µM and inactive = higher. Where a SMILES comes first, the peptide text is derived from it. [ ]: non-standard residue; d: D form. Ac5c = NC1(C(=O)O)CCCC1
# Columns and labels:
# Test in all cases: growth of human tumour cells (NCI), 48 h
# Hs-578T = test system: Hs-578T
# KM12 = test system: KM12
# HCT-15 = test system: HCT-15
# NCI-H226 = test system: NCI-H226
# SN12C = test system: SN12C
# BT-549 = test system: BT-549
# MCF7 = test system: MCF7
# UACC-257 = test system: UACC-257
# K562 = test system: K562
# SK-MEL-28 = test system: SK-MEL-28
# IGROV-1 = test system: IGROV-1
# T47D = test system: T47D
# SF-295 = test system: SF-295
# MOLT-4 = test system: MOLT-4
# ACHN = test system: ACHN
# 786-0 = test system: 786-0
# HL-60 = test system: HL-60
# OVCAR-4 = test system: OVCAR-4
# MDA-N = test system: MDA-N
Structure (SMILES),GI50 (Hs-578T),GI50 (KM12),GI50 (HCT-15),GI50 (NCI-H226),GI50 (SN12C),GI50 (BT-549),GI50 (MCF7),GI50 (UACC-257),GI50 (K562),GI50 (SK-MEL-28),GI50 (IGROV-1),GI50 (T47D),GI50 (SF-295),GI50 (MOLT-4),GI50 (ACHN),GI50 (786-0),GI50 (HL-60),GI50 (OVCAR-4),GI50 (MDA-N)
CCOc1ccc(/N=C/C=C(\Cl)c2ccc3ccccc3c2)cc1,29.8 µM (inactive),16.3 µM (inactive),13.7 µM,22.4 µM (inactive),17.4 µM (inactive),20.2 µM (inactive),17.7 µM (inactive),15.9 µM (inactive),8.55 µM (inactive),11.8 µM (inactive),17.1 µM (inactive),4.95 µM (inactive),18.8 µM (inactive),2.55 µM (inactive),17.7 µM (inactive),12.8 µM (inactive),8.59 µM (inactive),10.6 µM (inactive),
N=C(N)NS(=O)(=O)c1ccc(Nc2c3ccccc3nc3c(C(=O)NC(CO)(CO)CO)cccc23)cc1,11.2 µM (inactive),14.9 µM (inactive),93.8 µM,,26.5 µM (inactive),13.4 µM (inactive),3.44 µM (inactive),> 100 µM (inactive),24.2 µM (inactive),30.5 µM (inactive),37.6 µM (inactive),4.7 µM (inactive),16.6 µM (inactive),2.79 µM (inactive),11.1 µM (inactive),15.7 µM (inactive),18.9 µM (inactive),> 10 µM (inactive),35.6 µM (inactive)
CCN(CC)CCOC(=O)CCN1CC2CCC(CC2)C1,> 100 µM (inactive),> 100 µM (inactive),> 100 µM,> 100 µM (inactive),,> 100 µM (inactive),> 100 µM (inactive),> 100 µM (inactive),> 100 µM (inactive),> 100 µM (inactive),> 100 µM (inactive),> 100 µM (inactive),> 100 µM (inactive),> 100 µM (inactive),> 100 µM (inactive),> 100 µM (inactive),> 100 µM (inactive),> 100 µM (inactive),> 100 µM (inactive)
Cn1c2ccc3cc2c(=S)c2cc(ccc21)OCCOCCOCCOCCOCCO3,> 10 µM (inactive),> 10 µM (inactive),> 10 µM,> 10 µM (inactive),> 10 µM (inactive),> 10 µM (inactive),> 10 µM (inactive),> 10 µM (inactive),> 10 µM (inactive),> 10 µM (inactive),> 10 µM (inactive),> 10 µM (inactive),> 10 µM (inactive),> 10 µM (inactive),> 10 µM (inactive),> 10 µM (inactive),> 10 µM (inactive),> 10 µM (inactive),> 10 µM (inactive)
COc1ccc(-n2c(CCC(=O)O)nc3c2C(=O)c2ccccc2C3=O)cc1,> 100 µM (inactive),> 100 µM (inactive),> 100 µM,> 100 µM (inactive),> 100 µM (inactive),> 100 µM (inactive),84.5 µM (inactive),> 100 µM (inactive),71.3 µM (inactive),> 100 µM (inactive),,33 µM (inactive),> 100 µM (inactive),> 100 µM (inactive),> 100 µM (inactive),> 100 µM (inactive),> 100 µM (inactive),> 100 µM (inactive),> 100 µM (inactive)
O=C(Oc1c(Cl)cc(C2(c3cc(Cl)c(OC(=O)c4ccccc4)c(Cl)c3)CCCCC2)cc1Cl)c1ccccc1,14.8 µM (inactive),5.08 µM (inactive),11.9 µM,16.3 µM (inactive),13.2 µM (inactive),14.7 µM (inactive),11.1 µM (inactive),12.7 µM (inactive),7.96 µM (inactive),14.7 µM (inactive),10.6 µM (inactive),11 µM (inactive),13.4 µM (inactive),5 µM (inactive),5.15 µM (inactive),14.1 µM (inactive),3.32 µM (inactive),10.9 µM (inactive),12.7 µM (inactive)
NC1(C(=O)NC2(C(=O)O)CCCC2)CCCC1 (H-[Ac5c]-[Ac5c]-OH),> 100 µM (inactive),> 100 µM (inactive),> 100 µM,> 100 µM (inactive),> 100 µM (inactive),> 100 µM (inactive),> 100 µM (inactive),> 100 µM (inactive),> 100 µM (inactive),> 100 µM (inactive),> 100 µM (inactive),> 100 µM (inactive),> 100 µM (inactive),> 100 µM (inactive),> 100 µM (inactive),> 100 µM (inactive),> 100 µM (inactive),> 100 µM (inactive),> 100 µM (inactive)
CC(=O)OCC1OC(O/C=C(\CN=[N+]=[N-])C(C)=O)C(OC(C)=O)C(OC(C)=O)C1OC(C)=O (stereo unspecified),52.6 µM (inactive),18.7 µM (inactive),3.94 µM,,7.96 µM (inactive),13.4 µM (inactive),7.62 µM (inactive),3.56 µM (inactive),5.02 µM (inactive),18.9 µM (inactive),15.6 µM (inactive),3.67 µM (inactive),37.2 µM (inactive),2.53 µM (inactive),3.4 µM (inactive),5.38 µM (inactive),2.03 µM (inactive),12.5 µM (inactive),8.85 µM (inactive)
CC1=C(C#N)C2C(=C(N)Oc3ccccc32)C(N)=N1 (stereo unspecified),26.1 µM (inactive),26.4 µM (inactive),17.9 µM,12.2 µM (inactive),23.7 µM (inactive),32 µM (inactive),6.56 µM (inactive),20.1 µM (inactive),29.7 µM (inactive),,25.4 µM (inactive),20.1 µM (inactive),26.9 µM (inactive),75 µM (inactive),27.7 µM (inactive),20.4 µM (inactive),29.1 µM (inactive),32.8 µM (inactive),21.8 µM (inactive)
CCOC(=O)c1nc2ccccc2nc1Oc1ccc(C(=O)OC)cc1,> 100 µM (inactive),> 100 µM (inactive),> 100 µM,> 100 µM (inactive),> 100 µM (inactive),> 100 µM (inactive),> 100 µM (inactive),> 100 µM (inactive),> 100 µM (inactive),> 100 µM (inactive),> 100 µM (inactive),> 100 µM (inactive),> 100 µM (inactive),2.87 µM (inactive),> 100 µM (inactive),> 100 µM (inactive),,> 100 µM (inactive),> 100 µM (inactive)
CN(C)c1nncc2[nH]cnc12,> 100 µM (inactive),74.8 µM (inactive),> 100 µM,> 100 µM (inactive),> 100 µM (inactive),> 100 µM (inactive),> 100 µM (inactive),> 100 µM (inactive),> 100 µM (inactive),> 100 µM (inactive),> 100 µM (inactive),> 100 µM (inactive),> 100 µM (inactive),> 100 µM (inactive),> 100 µM (inactive),> 100 µM (inactive),> 100 µM (inactive),,
Cc1sc2nc3n(sc4nc5sc(C)c(C)c5c(=O)n43)c(=O)c2c1C,> 100 µM (inactive),> 100 µM (inactive),> 100 µM,> 100 µM (inactive),> 100 µM (inactive),70.5 µM (inactive),82.4 µM (inactive),> 100 µM (inactive),93.8 µM (inactive),> 100 µM (inactive),> 100 µM (inactive),0.935 µM (active),> 100 µM (inactive),23 µM (inactive),,> 100 µM (inactive),40.3 µM (inactive),63.8 µM (inactive),> 100 µM (inactive)
Cc1ccc(S(=O)(=O)NC(=O)NC(C(=O)O)C(C)C)cc1 (stereo unspecified),> 100 µM (inactive),> 100 µM (inactive),> 100 µM,,> 100 µM (inactive),> 100 µM (inactive),> 100 µM (inactive),> 100 µM (inactive),> 100 µM (inactive),> 100 µM (inactive),> 100 µM (inactive),> 100 µM (inactive),> 100 µM (inactive),> 100 µM (inactive),> 100 µM (inactive),> 100 µM (inactive),> 100 µM (inactive),> 100 µM (inactive),> 100 µM (inactive)
C[N+]12C=CC=C1C(N1CCCC1)c1scc(-c3ccc(F)cc3)c12 (stereo unspecified),21.5 µM (inactive),23.8 µM (inactive),,23.5 µM (inactive),11.1 µM (inactive),4.89 µM (inactive),22 µM (inactive),,5.74 µM (inactive),66.5 µM (inactive),13.1 µM (inactive),5.93 µM (inactive),58.7 µM (inactive),21.6 µM (inactive),,47.2 µM (inactive),,,17.1 µM (inactive)
Cc1ccc2c(c1)SSSSS2,26.9 µM (inactive),18.9 µM (inactive),14.1 µM,,16.5 µM (inactive),19.8 µM (inactive),18.6 µM (inactive),17.6 µM (inactive),22.1 µM (inactive),17.1 µM (inactive),19.3 µM (inactive),12.6 µM (inactive),19.8 µM (inactive),30.5 µM (inactive),18.4 µM (inactive),15.8 µM (inactive),20 µM (inactive),18.3 µM (inactive),23.4 µM (inactive)
CN1CC[C@]23c4c5ccc(O)c4O[C@H]2C(O)CC[C@@]3(O)[C@H]1C5 (stereo partly specified),> 100 µM (inactive),> 100 µM (inactive),> 100 µM,> 100 µM (inactive),> 100 µM (inactive),> 100 µM (inactive),> 100 µM (inactive),> 100 µM (inactive),,> 100 µM (inactive),> 100 µM (inactive),> 100 µM (inactive),> 100 µM (inactive),> 100 µM (inactive),> 100 µM (inactive),> 100 µM (inactive),> 100 µM (inactive),> 100 µM (inactive),> 100 µM (inactive)
